The values below come from patent US20040162422A1, “Chemical compounds” (priority 2001, published 2004).

In test [1] the target is T1, human adenosine A1 receptors (Homo sapiens, UniProt P30542).
T1 construct: expressed in transfected cells
T1 sequence (P30542 1-326): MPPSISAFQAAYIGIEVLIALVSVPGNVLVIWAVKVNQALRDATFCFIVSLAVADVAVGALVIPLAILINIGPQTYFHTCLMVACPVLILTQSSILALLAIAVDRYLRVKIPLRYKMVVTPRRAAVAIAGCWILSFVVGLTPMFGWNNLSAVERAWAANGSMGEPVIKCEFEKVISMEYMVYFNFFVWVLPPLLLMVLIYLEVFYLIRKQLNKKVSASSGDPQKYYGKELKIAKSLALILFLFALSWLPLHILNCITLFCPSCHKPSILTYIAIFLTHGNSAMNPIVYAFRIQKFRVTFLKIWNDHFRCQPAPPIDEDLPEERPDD
The test is described as follows: Reporter gene experiments in yeast (agonist activity, β-galactosidase/FDG readout). Format: cell-based. The arrangement: key: equipotent concentration ratio relative to NECA = 1. As to conditions: ECR = equipotent concentration ratio relative to NECA = 1; agonist potency, yeast reporter gene assay. As to the method:
Reporter Gene Experiments in Yeast
Agonist activity at human adenosine A1 receptors was measured in yeast cell lines expressing the adenosine A1 receptor together with a chimeric G-protein which linked receptor stimulation to the expression of the enzyme β-galactosidase. Cells were plated out in 96-well plates in culture medium to which was added 2 mM 3-AT (3-aminotriazole) to limit basal growth in the absence of agonist stimulation, and FDG (fluorescein di-β-D-galactopyranoside) as substrate for β-galactosidase, which converts FDG to fluorescein. For measurement of potency, agonists were added to the appropriate wells at a concentration range of approximately 10^−10-10^−5M and incubated at 30° C. for 18 hours. At this point the amount of fluorescein generated was measured in a spectrophotometer. From these readings, the concentration-dependence of the stimulation by the agonist can be calculated. One of the agonists tested on each 96-well plate was the standard non-selective agonist, N-ethylcarboxamidoadenosine (NECA), and the potency of all test agonists is expressed relative to that of the NECA standard.
(ECR=equipotent concentration ratio relative to NECA=1)
For orientation: A reporter such as luciferase makes a cellular process visible.

Test [2] concerns the target T2, human adenosine A3 receptors (Homo sapiens, UniProt P0DMS8).
T2 construct: expressed in transfected cells; host or cells: Chinese hamster ovary (CHO) cells with CRE/SPAP/HYG reporter
T2 sequence (P0DMS8 1-318): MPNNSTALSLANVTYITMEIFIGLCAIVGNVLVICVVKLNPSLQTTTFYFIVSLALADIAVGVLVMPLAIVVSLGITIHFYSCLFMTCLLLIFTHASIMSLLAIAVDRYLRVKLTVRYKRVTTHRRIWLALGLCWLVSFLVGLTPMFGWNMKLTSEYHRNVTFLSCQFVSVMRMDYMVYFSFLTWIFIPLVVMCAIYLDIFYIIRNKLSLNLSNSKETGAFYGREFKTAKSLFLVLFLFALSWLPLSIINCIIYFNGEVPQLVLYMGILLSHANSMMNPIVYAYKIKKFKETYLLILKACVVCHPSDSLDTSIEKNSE
The test is described as follows: Reporter gene experiments in CHO cells (CRE/SPAP, inhibition of forskolin-stimulated SPAP production). The following applies: ECR = equipotent concentration ratio relative to NECA = 1; agonist potency, CHO CRE/SPAP reporter gene assay. In kind it is cell-based. An excerpt:
The compounds useful in the invention are agonists at the adenosine A1 receptor. Preferably they are selective agonists at the adenosine A1 receptor. By selective is meant that the affinity for the A1 receptor is at least 2 times, preferably 5 times and more preferably 10 times greater than the other adenosine receptor subtypes, particularly A3. Agonist selectivity of compounds against other human adenosine receptors can be determined using Chinese hamster ovary (CHO) cells transfected with the gene for the relevant human adenosine receptor following a method based on that of Castanon, K V. and Spevak, W. (1994) Biochem. Biophys. Res. Commun. 198, 626-631. The CHO cells are also transfected with cyclic AMP response elements promoting the gene for secreted placental alkaline phosphatase (SPAP) (Wood, K V. (1995) Cuff. Opinion. Biotechnology, 6, 50-58). The effect of test compounds is determined by their effects on basal levels of cAMP (A2a) or on forskolin-enhanced cAMP (A1 and A3) as reflected by changes in levels of SPAP. EC50 values for compounds are determined as a ratio to that of the non-selective agonist N-ethyl carboxamidoadenosine (NECA). “Adenosine receptors: New opportunities for future drugs” (S. A. Poulsen et al, Bioorg. Med. Chem,. 1998, 6, 619-641) summarises disease conditions that may be treated with adenosine A1 agonists.
Reporter Gene Experiments in CHO cells
Agonist activity at human adenosine A3 receptors was measured in Chinese hamster ovary (CHO) cells containing the CRE/SPAP/HYG (CRE=cyclic AMP response element; HYG=hygromycin resistance; SPAP=secreted placental alkaline phosphatase) reporter gene elements, which upon stimulation of cAMP levels produced SPAP. A cell line was used which was stably transfected with the human adenosine A3 receptor in addition to the above elements. Cells were plated out in 96-well plates in culture medium and incubated at 37° C. for 1 hour. For measurement of potency, agonists were added to the appropriate wells at a concentration range of approximately 10^−10-10^−5M. 15 Min later, cAMP levels were stimulated by addition of a maximal concentration of forskolin. All cells were then incubated for a further 5 hours at 37° C., and cooled to room temperature, after which a substrate for the phosphatase (para-nitrophenol phosphate, pNPP), which is converted by SPAP to a coloured reagent) was then added and the 96-well plates were read in a plate reader. From these readings, the concentration-dependence of the inhibition by the agonist for forskolin-stimulated SPAP production can be calculated. As with the yeast assays, one of the agonists tested on each 96-well plate was the standard non-selective agonist, N-ethylcarboxamidoadenosine (NECA), and the potency of all test agonists is expressed relative to that of the NECA standard.

Where only a bound is given, the exact number is not on record here.

Take `C#C[C@H]1O[C@@H](n2cnc3c(N[C@H]4C[C@H]5CCC[C@H]54)ncnc32)[C@H](O)[C@@H]1O` (relative stereo) [Example 17, (2R,3R,4S,5R)-2-{6-[(1R*,5R*,6S*)-Bicyclo[3.2.0]hept-6-ylamino]-9H-purin-9-yl}-5-ethynyltetrahydrofuran-3,4-diol]: in test [1], the “Adenosine A1 receptor ECR*” value was 2.88. The “Adenosine A3 receptor ECR*” value in test [2] is given as over 416.

On to `C#C[C@H]1O[C@@H](n2cnc3c(Nc4ccc(F)cc4F)ncnc32)[C@H](O)[C@@H]1O` [Example 32, (2R,3R,4S,5R)-2-{6-[(2,4-Difluorophenyl)amino]-9H-purin-9-yl}-5-ethynyltetrahydrofuran-3,4-diol], for which the “Adenosine A1 receptor ECR*” value in test [1] is listed as 7.94. In addition, the “Adenosine A3 receptor ECR*” value in test [2] is reported as over 1070.

For the compound `C#C[C@H]1O[C@@H](n2cnc3c(N[C@H]4CCO[C@H]4C)ncnc32)[C@H](O)[C@@H]1O` [Example 14, (2R,3R,4S,5R)-5-Ethynyl-2-(6-{[(2S,3S)-2-methyltetrahydrofuran-3-yl]amino}-9H-purin-9-yl)tetrahydrofuran-3,4-diol], the “Adenosine A1 receptor ECR*” value in test [1] is 14.86. Moreover, the “Adenosine A3 receptor ECR*” value in test [2] is on record as over 502.

As for `C#C[C@H]1O[C@@H](n2cnc3c(Nc4cccc(Cl)c4C)ncnc32)[C@H](O)[C@@H]1O` [Example 38, (2R,3R,4S,5R)-2-{6-[(3-Chloro-2-methylphenyl)amino]-9H-purin-9-yl}-5-ethynyltetrahydrofuran-3,4-diol], in test [1], the “Adenosine A1 receptor ECR*” value is 5.45. In addition, the “Adenosine A3 receptor ECR*” value in test [2] is recorded as over 145.

Take `C#C[C@H]1O[C@@H](n2cnc3c(Nc4ccc(F)cc4Cl)ncnc32)[C@H](O)[C@@H]1O` [Example 35, (2R,3R,4S,5R)-2-{6-[(2-chloro-4-fluorophenyl)amino]-9H-purin-9-yl}-5-ethynyltetrahydrofuran-3,4-diol]: the “Adenosine A1 receptor ECR*” value in test [1] was found to be 6.48. In addition, the “Adenosine A3 receptor ECR*” value in test [2] was over 974.

For the compound `C#C[C@H]1O[C@@H](n2cnc3c(NCCS(=O)(=O)NCC)ncnc32)[C@H](O)[C@@H]1O` [Example 1, N-Ethyl-2-({9-[(2R,3R,4S,5R)-5-ethynyl-3,4-dihydroxytetrahydrofuran-2-yl]-9H-purin-6-yl}amino)ethanesulfonamide], in test [1], the “Adenosine A1 receptor ECR*” value was determined as 9.95. For the same compound, the “Adenosine A3 receptor ECR*” value in test [2] was over 1070.

Regarding `C#C[C@H]1O[C@@H](n2cnc3c(NCC4CC4)ncnc32)[C@H](O)[C@@H]1O` [Example 11, (2R,3R,4S,5R)-2-{6-[(Cyclopropylmethyl)amino]-9H-purin-9-yl}-5-ethynyltetrahydrofuran-3,4-diol], the “Adenosine A1 receptor ECR*” value in test [1] was 5. Besides, the “Adenosine A3 receptor ECR*” value in test [2] is over 210.

As to `C#C[C@H]1O[C@@H](n2cnc3c(Nc4ccc(Cl)cc4C)ncnc32)[C@H](O)[C@@H]1O` [Example 39, (2R,3R,4S,5R)-2-{6-[(4-Chloro-2-methylphenyl)amino]-9H-purin-9-yl}-5-ethynyltetrahydrofuran-3,4-diol], the “Adenosine A1 receptor ECR*” value in test [1] was found to be 7.36. Moreover, in test [2], the “Adenosine A3 receptor ECR*” value is reported as over 168.

In the case of `C#C[C@H]1O[C@@H](n2cnc3c(NC4CC4(C)C)ncnc32)[C@H](O)[C@@H]1O` (stereo partly drawn) [Example 18, (2R,3R,4S,5R)-2-{6-[(2,2-Dimethylcyclopropyl)amino]-9H-purin-9-yl}-5-ethynyltetrahydrofuran-3,4-diol], in test [1], the “Adenosine A1 receptor ECR*” value came to 6.81. Further, the “Adenosine A3 receptor ECR*” value in test [2] is over 3208.

On to `C#C[C@H]1O[C@@H](n2cnc3c(NC4CC4)ncnc32)[C@H](O)[C@@H]1O` [Example 10, (2R,3R,4S,5R)-2-[6-(Cyclopropylamino)-9H-purin-9-yl]-5-ethynyltetrahydrofuran-3,4-diol], for which the “Adenosine A1 receptor ECR*” value in test [1] was 6.89. In addition, in test [2], the “Adenosine A3 receptor ECR*” value is over 1066.

In the case of `C#C[C@H]1O[C@@H](n2cnc3c(NC4CCCC4)ncnc32)[C@H](O)[C@@H]1O` [Example 12], the “Adenosine A1 receptor ECR*” value in test [1] is on record as 4.47. Also, in test [2], the “Adenosine A3 receptor ECR*” value is over 80.2.

`C#C[C@H]1O[C@@H](n2cnc3c(Nc4cccc(F)c4C)ncnc32)[C@H](O)[C@@H]1O` [Example 37, (2R,3R,4S,5R)-5-ethynyl-2-{6-[(3-fluoro-2-methylphenyl)amino]-9H-purin-9-yl}tetrahydrofuran-3,4-diol]: the “Adenosine A1 receptor ECR*” value in test [1] turned out to be 4.79. Moreover, in test [2], the “Adenosine A3 receptor ECR*” value is listed as over 145.

Consider `C#C[C@H]1O[C@@H](n2cnc3c(N[C@H]4[C@H]5CC[C@H](C5)[C@@H]4C)ncnc32)[C@H](O)[C@@H]1O` [Example 8, (2R,3R,4S,5R)-5-Ethynyl-2-(6-{[(1S,2S,3S,4R)-3-methylbicyclo[2.2.1]hept-2-yl]amino}-9H-purin-9-yl)tetrahydrofuran-3,4-diol], for which the “Adenosine A1 receptor ECR*” value in test [1] was 7.94. Also, in test [2], the “Adenosine A3 receptor ECR*” value was over 178.

`C#C[C@H]1O[C@@H](n2cnc3c(N[C@@H]4CCO[C@@H]4C)ncnc32)[C@H](O)[C@@H]1O` [Example 13, (2R,3R,4S,5R)-5-Ethynyl-2-(6-{[(2R,3R)-2-methyltetrahydrofuran-3-yl]amino}-9H-purin-9-yl)tetrahydrofuran-3,4-diol]: the “Adenosine A1 receptor ECR*” value in test [1] is on record as 18.86. For the same compound, the “Adenosine A3 receptor ECR*” value in test [2] was over 386.

As for `C#C[C@H]1O[C@@H](n2cnc3c(NC4Cc5ccccc5C4)ncnc32)[C@H](O)[C@@H]1O` [Example 4, (2R,3R,4S,5R)-2-[6-(2,3-Dihydro-1H-inden-2-ylamino)-9H-purin-9-yl]-5-ethynyltetrahydrofuran-3,4-diol], the “Adenosine A1 receptor ECR*” value in test [1] was found to be 27.96. In addition, the “Adenosine A3 receptor ECR*” value in test [2] is given as over 407.

On to `C#C[C@H]1O[C@@H](n2cnc3c(NCCc4ccccc4)ncnc32)[C@H](O)[C@@H]1O` [Example 6, (2R,3R,4S,5R)-5-ethynyl-2-{6-[(2-phenylethyl)amino]-9H-purin-9-yl}tetrahydrofuran-3,4-diol], for which the “Adenosine A1 receptor ECR*” value in test [1] is reported as 24.6. The “Adenosine A3 receptor ECR*” value in test [2] is over 1059.

For “(2R,3R,4S,5R)-5-Ethynyl-2-{6-[(trans-4-hydroxycyclohexyl)amino]-9H-purin-9-yl}tetrahydrofuran-3,4-diol [Example 19]”, the “Adenosine A1 receptor ECR*” value in test [1] came out at 8.57. Besides, the “Adenosine A3 receptor ECR*” value in test [2] is on record as over 3208.
